# Patent publication US20260034123A1 (Cedilla Therapeutics, Inc., priority 2022, published 2026)
# Assays:
# CDK2/Cyclin E1 = CDK2/Cyclin E1 (Homo sapiens, UniProt P24941); experiment: Caliper LabChip EZ Reader mobility shift assay; format: biochemical; conditions: 2.5 nM CDK2/Cyclin E1(14-475), 100 μM ATP, 30 min preincubation; read-out: Caliper Assay (CDK2/CCNE1): IC50
# Procedure: Inhibition of CDK2/Cyclin E1 activity in the presence of compounds of the present disclosure was evaluated using a Caliper LabChip® EZ Reader mobility shift assay. In the assay, activated CDK2/Cyclin E1 catalyzes the phosphorylation of a fluorescently tagged peptide 5-FAM-QSPKKG-CONH2 (PerkinElmer, FL Peptide 18) which induces a difference in capillary electrophoresis mobility. The peptide substrate and product were measured, and the conversion ratio was used to determine the inhibition (as % activity and IC50 values) of CDK2/Cyclin E1. Reactions contained 50 mM HEPES pH 7.5, 10 mM MgCl2, 1 mM EDTA, 2 mM DTT, 0.01% Brij35, 0.5 mg/mL BSA, 0.1% DMSO, 2.5 nM CDK2/Cyclin E1(14-475), 100 μM ATP, and 1.5 μM fluorescent peptide substrate.
# Dose titrations of inhibitors in 100% DMSO were combined with 3.25 nM CDK2/Cyclin E1(14-475) and 130 μM of ATP in reaction buffer. The mixtures were incubated for 30 minutes before the addition of fluorescent peptide substrate to initiate the kinase reaction. The final conditions were 2.5 nM CDK2/Cyclin E1(14-475), 100 μM ATP, and 1.5 μM fluorescent peptide. The reactions were stopped after 100 minutes with the addition of EDTA (6 mM final EDTA concentration). The stopped reactions were analyzed on a Caliper LabChip® EZ Reader 11. The conversion ratios were normalized to yield % activity, plotted against compound concentration, and fit to a four-parameter equation to determine the IC50 for each compound.
# Kuramochi cells RB-WT = experiment: IncuCyte Kuramochi cell proliferation assay, RB-WT; format: cell-based; conditions: 72 hours, cell count
# Procedure, shortened: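 GI50 was derived by curve-fitting DMSO-normalized fold change in nuclear count between 0 and 72 h. Counts came from images of Kuramochi cells carrying mApple-H2B. Compounds were dosed over 10 points at 1/2-log spacing from a 20 µM top concentration.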
Structure (SMILES),IC50 (CDK2/Cyclin E1) [µM],IC50 (Kuramochi cells RB-WT) [µM]
"CC1(C)C[C@@H]1C(=O)N1CC2(CN(C(=O)c3cncs3)C[C@H]2COc2nccc3c(C4CCOCC4)cccc23)C1 [Compound I-25, ((S)-2-((S)-2,2-dimethylcyclopropanecarbonyl)-8-(((5-(tetrahydro-2H-pyran-4-yl)isoquinolin-1-yl)oxy)methyl)-2,6-diazaspiro[3.4]octan-6-yl)(thiazol-5-yl)methanone]",0.1 to 1,> 10
"CC1(C)C[C@@H]1C(=O)N1CC2(CN(C(=O)c3cnccn3)C[C@H]2COCc2cccc(-c3ccc(C(F)(F)F)cc3)n2)C1 [Compound I-18, ((S)-2-((S)-2,2-dimethylcyclopropane-1-carbonyl)-8-(((6-(4-(trifluoromethyl)phenyl)pyridin-2-yl)methoxy)methyl)-2,6-diazaspiro[3.4]octan-6-yl) (pyrazin-2-yl)methanone]",0.01 to 0.1,> 10
"O=C(c1cncs1)N1C[C@@H](COCc2cccc(-c3ccc(C(F)(F)F)cc3)n2)C2(CN(CC3CCCO3)C2)C1 (stereo partly drawn) [Compound I-11, ((8S)-2-((Tetrahydrofuran-2-yl)methyl)-8-(((6-(4-(trifluoromethyl)phenyl)pyridin-2-yl)methoxy)methyl)-2,6-diazaspiro[3.4]octan-6-yl)(thiazol-5-yl)methanone]",> 10,> 10
CC1(C)C[C@@H]1C(=O)N1CC2(C1)CN(c1cccc3ncsc13)CC2COCc1cccc(C2CCOCC2)n1 (stereo partly drawn) [Compound I-46],> 10,> 10
"O=C(c1cncs1)N1C[C@@H](COCc2cccc(-c3ccc(C(F)(F)F)cc3)n2)C2(CN(CC3COC3)C2)C1 [Compound I-15, (S)-(2-(oxetan-3-ylmethyl)-8-(((6-(4-(trifluoromethyl)phenyl)pyridin-2-yl)methoxy)methyl)-2,6-diazaspiro[3.4]octan-6-yl)(thiazol-5-yl)methanone]",> 10,> 10
"O=C(c1cncs1)N1C[C@@H](COCc2cccc(-c3ccc(C4(C(F)(F)F)CC4)cc3)n2)C2(CN(CC3CCCO3)C2)C1 (stereo partly drawn) [Compound I-7, ((8S)-2-((tetrahydrofuran-2-yl)methyl)-8-(((6-(4-(1-(trifluoromethyl)cyclopropyl)phenyl)pyridin-2-yl)methoxy)methyl)-2,6-diazaspiro[3.4]octan-6-yl)(thiazol-5-yl)methanone]",> 10,> 10
"CC1(C)C[C@@H]1C(=O)N1CC2(CN(CC3CCCO3)C[C@H]2CNC(=O)c2cccc(-c3ccc(C(F)(F)F)cc3)n2)C1 (stereo partly drawn) [Compound I-9, N-(((8R)-2-((S)-2,2-dimethylcyclopropane-1-carbonyl)-6-((tetrahydrofuran-2-yl)methyl)-2,6-diazaspiro[3.4]octan-8-yl)methyl)-6-(4-(trifluoromethyl)phenyl)picolinamide]",> 10,> 10
"COc1ccccc1-c1cccc(C(=O)NC[C@@H]2CN(CC3CCCO3)CC23CN(C(=O)[C@H]2CC2(C)C)C3)n1 (stereo partly drawn) [Compound I-10, N-(((8R)-2-((S)-2,2-dimethylcyclopropane-1-carbonyl)-6-((tetrahydrofuran-2-yl)methyl)-2,6-diazaspiro[3.4]octan-8-yl)methyl)-6-(2-methoxyphenyl)picolinamide]",1 to 10,> 10
"CC1(C)C[C@@H]1C(=O)N1CC2(C1)CN(c1ncnc3ncsc13)CC2COCc1cccc(C2CCOCC2)n1 (stereo partly drawn) [Compound I-47, ((S)-2,2-dimethylcyclopropyl)(8-(((6-(tetrahydro-2H-pyran-4-yl)pyridin-2-yl)methoxy)methyl)-6-(thiazolo[4,5-d]pyrimidin-7-yl)-2,6-diazaspiro[3.4]octan-2-yl)methanone]",> 10,> 10
"CC1(C)C[C@@H]1C(=O)N1CC2(CN(C(=O)c3cncs3)C[C@H]2COCc2cccc(-c3cccnc3)n2)C1 [Compound I-20, ((S)-8-(([2,3′-bipyridin]-6-ylmethoxy)methyl)-2-((S)-2,2-dimethylcyclopropane-1-carbonyl)-2,6-diazaspiro[3.4]octan-6-yl)(thiazol-5-yl)methanone]",0.1 to 1,> 10

# More lines, main results first:
IC50 (CDK2/Cyclin E1) [µM],Structure (SMILES),IC50 (Kuramochi cells RB-WT) [µM]
> 10,"CN(Cc1cccc(C2CCOCC2)n1)C[C@@H]1CN(C(=O)c2cncs2)CC12CN(C(=O)[C@H]1CC1(C)C)C2 [Compound I-26, (2-((S)-2,2-dimethylcyclopropanecarbonyl)-8-((methyl((6-(tetrahydro-2H-pyran-4-yl)pyridin-2-yl)methyl)amino)methyl)-2,6-diazaspiro[3.4]octan-6-yl)(thiazol-5-yl) methanone]",> 10
1 to 10,"CC1(C)C[C@@H]1C(=O)N1CC2(CN(C(=O)c3cncs3)C[C@H]2COCc2cncc(C3CCOCC3)c2)C1 [Compound I-42, ((S)-2-((S)-2,2-dimethylcyclopropane-1-carbonyl)-8-(((5-(tetrahydro-2H-pyran-4-yl)pyridin-3-yl)methoxy)methyl)-2,6-diazaspiro[3.4]octan-6-yl)(thiazol-5-yl)methanone]",> 10
0.1 to 1,"CC1(C)C[C@@H]1C(=O)N1CC2(CN(C(=O)c3cncs3)C[C@H]2COc2cccc3c(C4CCOCC4)cccc23)C1 [Compound I-22, ((S)-2-((S)-2,2-dimethylcyclopropane-1-carbonyl)-8-(((5-(tetrahydro-2H-pyran-4-yl)naphthalen-1-yl)oxy)methyl)-2,6-diazaspiro[3.4]octan-6-yl)(thiazol-5-yl)methanone]",> 10
1 to 10,"CC1(C)C[C@@H]1C(=O)N1CC2(CN(C(=O)c3cncs3)C[C@H]2COCc2ccc(C(F)(F)F)cc2)C1 [Compound I-41, ((S)-2-((S)-2,2-dimethylcyclopropane-1-carbonyl)-8-(((4-(trifluoromethyl)benzyl)oxy)methyl)-2,6-diazaspiro[3.4]octan-6-yl)(thiazol-5-yl)methanone]",> 10
> 10,"CC1(C)C[C@@H]1C(=O)N1CC2(CN(C(=O)c3cncs3)C[C@H]2COCc2ccn[nH]2)C1 [Compound I-29, ((S)-8-(((1H-pyrazol-5-yl)methoxy)methyl)-2-((S)-2,2-dimethylcyclopropanecarbonyl)-2,6-diazaspiro[3.4]octan-6-yl)(thiazol-5-yl)methanone]",> 10
1 to 10,"CC1(C)C[C@@H]1C(=O)N1CC2(CN(C(=O)c3cncs3)C[C@H]2COc2cccc3ccc(C4CCOCC4)nc23)C1 [Compound I-30, ((S)-2-((S)-2,2-dimethylcyclopropanecarbonyl)-8-(((2-(tetrahydro-2H-pyran-4-yl)quinolin-8-yl)oxy)methyl)-2,6-diazaspiro[3.4]octan-6-yl)(thiazol-5-yl)methanone]",> 10
> 10,"CC1(C)C[C@@H]1C(=O)N1CC2(CN(C(=O)c3cncs3)C[C@H]2COCC2CCCCO2)C1 (stereo partly drawn) [Compound I-32, ((S)-2-((S)-2,2-dimethylcyclopropane-1-carbonyl)-8-(((tetrahydro-2H-pyran-2-yl)methoxy)methyl)-2,6-diazaspiro [3.4]octan-6-yl) (thiazol-5-yl) methanone]",> 10
0.1 to 1,"CC1(C)C[C@@H]1C(=O)N1CC2(CN(C(=O)c3cncs3)C[C@H]2COCc2cc3ccccc3c(C3CCOCC3)n2)C1 [Compound I-28, ((S)-2-((S)-2,2-dimethylcyclopropane-1-carbonyl)-8-(((1-(tetrahydro-2H-pyran-4-yl)isoquinolin-3-yl)methoxy)methyl)-2,6-diazaspiro[3.4]octan-6-yl)(thiazol-5-yl)methanone]",> 10
1 to 10,"CC1(C)C[C@@H]1C(=O)N1CC2(CN(C(=O)c3cncs3)C[C@H]2COCc2cc(C3CCOCC3)ccn2)C1 [Compound I-43, ((S)-2-((S)-2,2-dimethylcyclopropane-1-carbonyl)-8-(((4-(tetrahydro-2H-pyran-4-yl)pyridin-2-yl)methoxy)methyl)-2,6-diazaspiro[3.4]octan-6-yl)(thiazol-5-yl)methanone]",> 10
1 to 10,"CC1(C)C[C@@H]1C(=O)N1CC2(CN(C(=O)c3cncs3)C[C@H]2COCc2cccc(C(F)(F)F)c2)C1 [Compound I-44, ((S)-2-((S)-2,2-dimethylcyclopropanecarbonyl)-8-(((3-(trifluoromethyl)benzyl)oxy)methyl)-2,6-diazaspiro[3.4]octan-6-yl)(thiazol-5-yl)methanone]",> 10
> 10,"CC1(C)C[C@@H]1C(=O)N1CC2(CN(C(=O)c3cncs3)C[C@H]2COCc2ccnc(C3CCOCC3)c2)C1 [Compound I-45, ((S)-2-((S)-2,2-dimethylcyclopropane-1-carbonyl)-8-(((2-(tetrahydro-2H-pyran-4-yl)pyridin-4-yl)methoxy)methyl)-2,6-diazaspiro[3.4]octan-6-yl)(thiazol-5-yl)methanone]",> 10
